Drawing on patent US7196110B2, “N-substituted tricyclic 3-aminopyrazoles as inhibitors for the treatment of cell proliferative disorders” (Janssen Phamaceutica N.V., priority 2002, dated 2007), this text covers inhibition and IC50 for 32 compounds.

The target of this assay is T1, PDGF-receptor beta enzyme comprising the tyrosine kinase domain (Homo sapiens, UniProt P09619).
T1 construct: from amino acid 545 to 1106 of GenBank Access NO: AAA36427
The experiment in a line: Inhibition of PDGF-receptor kinase activity (cell-free, PLC1 peptide, 33P Flashplate). The format is biochemical. As to conditions: for inhibition at 10 µM: compound at 10 uM, read-out: Percent Inhibition @ 10 uM. The procedure, abridged: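 Recombinant kinase domain (aa 545–1106) phosphorylated a biotinylated PLC1 peptide with 5 μM ATP plus 33P-γ-ATP, in Tris pH 8, MgCl2, Na3VO4 and 1 mM DTT, for 60 min at 30 °C. Retained 33P was counted after washing. IC50 is the concentration halving activity versus no-inhibitor reactions.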

Where [1] appears, read: PDGF-R kinase activity, read-out: IC50.
[2] abbreviates: read-out: IC50 (μM) on PDGF-R kinase activity.

The structures appear in SMILES notation. Where two headings read alike, the source gives them in different places.

T1 sequence (P09619 545-1106): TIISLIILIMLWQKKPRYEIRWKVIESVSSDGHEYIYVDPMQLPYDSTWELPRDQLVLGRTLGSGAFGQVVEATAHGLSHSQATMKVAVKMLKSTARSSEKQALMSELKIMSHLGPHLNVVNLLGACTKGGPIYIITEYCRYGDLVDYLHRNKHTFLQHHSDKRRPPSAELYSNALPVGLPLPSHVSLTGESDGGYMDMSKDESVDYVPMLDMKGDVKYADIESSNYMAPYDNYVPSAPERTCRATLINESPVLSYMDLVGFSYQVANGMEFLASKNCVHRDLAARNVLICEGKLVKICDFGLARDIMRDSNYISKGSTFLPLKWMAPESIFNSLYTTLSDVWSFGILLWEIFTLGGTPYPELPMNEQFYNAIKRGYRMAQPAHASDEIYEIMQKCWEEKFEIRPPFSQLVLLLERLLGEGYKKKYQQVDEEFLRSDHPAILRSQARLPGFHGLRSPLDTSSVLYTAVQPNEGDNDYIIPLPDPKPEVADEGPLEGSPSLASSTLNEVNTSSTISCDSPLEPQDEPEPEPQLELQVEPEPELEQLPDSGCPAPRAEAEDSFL

The inhibition is the relative decrease from the control value, in per cent. What is called IC50 is the concentration that inhibits the measured activity by half. As to `COc1cc2c(cc1OC)C(C)c1c-2n[nH]c1Nc1cccc(Br)c1` (single isomer, unassigned) [Compound 568, *S-(3-Bromo-phenyl)-(6,7-dimethoxy-4-methyl-2,4-dihydro-indeno[1,2-c]pyrazol-3-yl)-amine], the inhibition at 10 µM (PDGF-R kinase activity) was 78%. In addition, the IC50 under setting [1] amounted to 0.79 µM. Take `COc1cc2c(cc1OC)-c1n[nH]c(Nc3ccccc3C(F)(F)F)c1C2` [Compound 28, (6,7-Dimethoxy-2,4-dihydro-indeno[1,2-c]pyrazol-3-yl)-(2-trifluoromethyl-phenyl)-amine]: where the note is “PDGF-R kinase activity”, the inhibition at 10 µM stood at 96%. For the same compound, the IC50 under setting [1] came to 19.1 µM. Regarding `COc1ccc(Nc2[nH]nc3c2Cc2ccc(OC)cc2-3)c(OC)c1` [Compound 175, (2,4-Dimethoxy-phenyl)-(7-methoxy-2,4-dihydro-indeno[1,2-c]pyrazol-3-yl)-amine], the inhibition at 10 µM (PDGF-R kinase activity) was 71%. Besides, the IC50 under setting [1] is 3.93 µM. On the same counts, the results for `COc1cc2c(cc1OC)-c1c(c(Nc3cccc(F)c3)nn1C(=O)c1ccccc1)C2` [Compound 427, [3-(3-Fluoro-phenylamino)-6,7-dimethoxy-4H-indeno[1,2-c]pyrazol-1-yl]-phenyl-methanone] are 80% and 1.15 µM. Consider `COc1cc2c(cc1OC)-c1nn(C)c(Nc3cccc(F)c3)c1C2` [Compound 610, (6,7-dimethoxy-2-methyl-1,4-dihydro-indeno[1,2-c]pyrazole-3-yl)-(3-fluoro-phenyl)-amine], for which, under “PDGF-R kinase activity”, the inhibition at 10 µM stood at 51.5%. Also, under setting [2], the IC50 is 9.38 µM. Consider `COc1cc2c(cc1OC)-c1n[nH]c(Nc3cccc4c3OC(F)(F)O4)c1C2` [Compound 565, (2,2-Difluoro-benzo[1,3]dioxol-4-yl)-(6,7-dimethoxy-2,4-dihydro-indeno[1,2-c]pyrazol-3-yl)-amine], for which, for the setting “PDGF-R kinase activity”, the inhibition at 10 µM was 41.5%.

Consider `CCOc1cc2c(cc1OCC)C(C)c1c-2n[nH]c1Nc1ccc(F)c(Cl)c1` (stereo not drawn) [Compound 347], for which the inhibition at 10 µM (PDGF-R kinase activity) worked out at 90.5%. Moreover, the IC50 under setting [1] turned out to be 0.545 µM. Consider `COc1cc2c(cc1OC)-c1n[nH]c(Nc3ccc(F)c(C(F)(F)F)c3)c1C2` [Compound 212, (6,7-Dimethoxy-2,4-dihydro-indeno[1,2-c]pyrazol-3-yl)-(4-fluoro-3-trifluoromethyl-phenyl)-amine], for which the inhibition at 10 µM (PDGF-R kinase activity) was found to be 84%. Under setting [1], the IC50 was 0.775 µM. For `COc1cc2c(cc1OC)-c1n[nH]c(Nc3ccc(N4CCN(C)CC4)cc3)c1C2` [Compound 51, (6,7-Dimethoxy-2,4-dihydro-indeno[1,2-c]pyrazol-3-yl)-[4-(4-methyl-piperazin-1-yl)-phenyl]-amine], the inhibition at 10 µM (PDGF-R kinase activity) was 30%. The IC50 under setting [1] was 26.7 µM.

As to `COc1ccc(Nc2[nH]nc3c2C(C)c2ccccc2-3)c(OC)c1` (stereo not drawn) [Compound 111, (2,4-Dimethoxy-phenyl)-(4-methyl-2,4-dihydro-indeno[1,2-c]pyrazol-3-yl)-amine], under “PDGF-R kinase activity”, the inhibition at 10 µM was 95%. Besides, the IC50 under setting [1] is 0.11 µM. For the compound `COc1cc2c(cc1OCc1ccccc1)-c1n[nH]c(Nc3cccc(F)c3)c1C2` [Compound 549, (7-Benzyloxy-6-methoxy-2,4-dihydro-indeno[1,2-c]pyrazol-3-yl)-(3-fluoro-phenyl)-amine], the inhibition at 10 µM (PDGF-R kinase activity) came to 106%. Further, the IC50 under setting [1] was determined as 0.0911 µM. On the same counts, the results for `COc1ccc2c(c1)-c1n[nH]c(Nc3ccc(OC(F)(F)F)cc3)c1C2` [Compound 177, (7-Methoxy-2,4-dihydro-indeno[1,2-c]pyrazol-3-yl)-(4-trifluoromethoxy-phenyl)-amine] are 65.5% and 0.523 µM.

Take `COc1ccc(Nc2[nH]nc3c2Cc2cc(OC)c(OC)cc2-3)c(OC)c1` [Compound 47, (6,7-Dimethoxy-2,4-dihydro-indeno[1,2-c]pyrazol-3-yl)-(2,4-dimethoxy-phenyl)-amine]: the inhibition at 10 µM (PDGF-R kinase activity) was 47%. Take `CCOc1cc2c(cc1OCC)-c1n[nH]c(Nc3cccc(F)c3)c1C2` [Compound 594, (6,7-Diethoxy-2,4-dihydro-indeno[1,2-c]pyrazol-3-yl)-(3-fluoro-phenyl)-amine]: the inhibition at 10 µM (PDGF-R kinase activity) was 64%. Further, the IC50 under setting [2] came out at 0.0156 µM.

For the compound `CC(C)Oc1cc2c(cc1OC(C)C)C(C)c1c-2n[nH]c1Nc1ccc(F)cc1` (stereo not drawn) [Compound 356, (6,7-Diisopropoxy-4-methyl-2,4-dihydro-indeno[1,2-c]pyrazol-3-yl)-(4-fluoro-phenyl)-amine], the inhibition at 10 µM (PDGF-R kinase activity) was 70%. Also, the IC50 under setting [1] was 1.95 µM.

`CC(C)Oc1cc2c(cc1OC(C)C)-c1n[nH]c(Nc3cccc(F)c3)c1C2` [Compound 169, (6,7-Diisopropoxy-2,4-dihydro-indeno[1,2-c]pyrazol-3-yl)-(3-fluoro-phenyl)-amine]: the inhibition at 10 µM (PDGF-R kinase activity) came to 89%. In addition, under setting [1], the IC50 is 0.036 µM.

In the case of `COc1cc2c(cc1OC)C(C(C)C)c1c-2n[nH]c1Nc1cccc(Br)c1` (stereo not drawn) [Compound 538, (3-Bromo-phenyl)-(4-isopropyl-6,7-dimethoxy-2,4-dihydro-indeno[1,2-c]pyrazol-3-yl)-amine], the inhibition at 10 µM (PDGF-R kinase activity) is 65%. Still for that read-out and setting: the same measure for `COc1cc2c(cc1OCCCN1CCN(C)CC1)Cc1c-2n[nH]c1Nc1ccc(F)c(Cl)c1` [Compound 214, (3-Chloro-4-fluoro-phenyl)-{7-methoxy-6-[3-(4-methyl-piperazin-1-yl)-propoxy]-2,4-dihydro-indeno[1,2-c]pyrazol-3-yl}-amine]: 46%. Turning to `COc1cc2c(cc1OC)-c1n[nH]c(NCc3ccccc3C(F)(F)F)c1C2` [Compound 329, (6,7-Dimethoxy-2,4-dihydro-indeno[1,2-c]pyrazol-3-yl)-(2-trifluoromethyl-benzyl)-amine], where the note is “PDGF-R kinase activity”, the inhibition at 10 µM amounted to 58%. Under setting [1], the IC50 was 0.0762 µM. The like results for `FC(F)(F)c1cccc(Nc2[nH]nc3c2Cc2cc(Br)ccc2-3)c1` [Compound 155, (6-Bromo-2,4-dihydro-indeno[1,2-c]pyrazol-3-yl)-(3-trifluoromethyl-phenyl)-amine] were, in that order, 53% and 8.11 µM.

Take `COc1cc2c(cc1OC)-c1c(c(Nc3cccc(F)c3)nn1C(=O)c1ccc(Cl)cc1)C2` [Compound 494, (4-Chloro-phenyl)-[3-(3-fluoro-phenylamino)-6,7-dimethoxy-4H-indeno[1,2-c]pyrazol-1-yl]-methanone]: under “PDGF-R kinase activity”, the inhibition at 10 µM came to 83%. Also, the IC50 under setting [1] was determined as 1.54 µM. The like results for `COc1cccc(Nc2[nH]nc3c2C(C)(C)c2cc(OC)c(OC)cc2-3)c1` [Compound 488, (6,7-Dimethoxy-4,4-dimethyl-2,4-dihydro-indeno[1,2-c]pyrazol-3-yl)-(3-methoxy-phenyl)-amine] were, in that order, 33.5% and 39.3 µM.

With `COc1cccc(Nc2[nH]nc3c2Cc2cc(F)ccc2-3)c1` [Compound 234, (6-Fluoro-2,4-dihydro-indeno[1,2-c]pyrazol-3-yl)-(3-methoxy-phenyl)-amine], the inhibition at 10 µM (PDGF-R kinase activity) was 101%. Further, under setting [1], the IC50 came to 0.358 µM. On the same counts, the results for `COc1cccc(Nc2[nH]nc3c2Cc2cc(OCCCN4CCOCC4)c(OC)cc2-3)c1` [Compound 131, [7-Methoxy-6-(3-morpholin-4-yl-propoxy)-2,4-dihydro-indeno[1,2-c]pyrazol-3-yl]-(3-methoxy-phenyl)-amine] are 97% and 0.013 µM. On the same counts, the results for `COc1cc2c(cc1OC)C(C)c1c-2n[nH]c1Nc1cc(F)cc(F)c1` (stereo not drawn) [Compound 251, (3,5-Difluoro-phenyl)-(6,7-dimethoxy-4-methyl-2,4-dihydro-indeno[1,2-c]pyrazol-3-yl)-amine] are 84% and 0.322 µM. As for `CCOc1cc2c(cc1OCC)C(C)c1c-2n[nH]c1Nc1cccnc1` (stereo not drawn) [Compound 345, (6,7-Diethoxy-4-methyl-2,4-dihydro-indeno[1,2-c]pyrazol-3-yl)-pyridin-3-yl-amine], under “PDGF-R kinase activity”, the inhibition at 10 µM is 88%. Besides, under setting [1], the IC50 worked out at 0.0893 µM. The like results for `COc1cc2c(cc1OC)-c1c(c(Nc3cccc(F)c3)nn1C(=O)c1ccc(F)cc1)C2` [Compound 492, (4-Fluoro-phenyl)-[3-(3-fluoro-phenylamino)-6,7-dimethoxy-4H-indenol[1,2-c]pyrazol-1-yl]-methanone] were, in that order, 78% and 0.472 µM.

With `CC(C)Oc1cc2c(cc1OC(C)C)C(C)c1c-2n[nH]c1Nc1ccc(F)c(Cl)c1` (stereo not drawn) [Compound 354, (3-Chloro-4-fluoro-phenyl)-(6,7-diisopropoxy-4-methyl-2,4-dihydro-indeno[1,2-c]pyrazol-3-yl)-amine], for the setting “PDGF-R kinase activity”, the inhibition at 10 µM was determined as 62%. Besides, the IC50 under setting [1] amounted to 2.45 µM. On to `COc1cc2c(cc1OC)-c1n[nH]c(Nc3ccc(OC(F)(F)F)cc3)c1C2` [Compound 16, (6,7-Dimethoxy-2,4-dihydro-indeno[1,2-c]pyrazol-3-yl)-(4-trifluoromethoxy-phenyl)-amine], for which the inhibition at 10 µM (PDGF-R kinase activity) worked out at 79%. Moreover, the IC50 under setting [1] was 4 µM. In the case of `c1ccc(Nc2[nH]nc3c2CCc2ccccc2-3)cc1` [Compound 93, (4,5-Dihydro-2H-benzo[g]indazol-3-yl)-phenyl-amine], where the note is “PDGF-R kinase activity”, the inhibition at 10 µM worked out at 88%. Also, under setting [1], the IC50 was found to be 1.03 µM.

Regarding `COc1cc2c(cc1OC)-c1c(c(Nc3cccc(F)c3)nn1C(=O)c1ccccc1F)C2` [Compound 481, (2-Fluoro-phenyl)-[3-(3-fluoro-phenylamino)-6,7-dimethoxy-4H-indeno[1,2-c]pyrazol-1-yl]-methanone], under “PDGF-R kinase activity”, the inhibition at 10 µM was found to be 59%. In addition, the IC50 under setting [1] stood at 3.76 µM. On to `CCOC(=O)CCNC(=O)n1nc2c(c1Nc1ccccc1)Cc1cc(OC)c(OC)cc1-2` [Compound 411, 3-[(6,7-Dimethoxy-3-phenlylamino-4H-indeno[1,2-c]pyrazole-2-carbonyl)-amino]-propionic acid ethyl ester], for which the inhibition at 10 µM (PDGF-R kinase activity) is 14.5%. The half-inhibitory concentration (IC50) under setting [1] stood at 0.0823 µM.
